Measurements from patent US7868022B2, “2-amino-quinoline derivatives useful as inhibitors of β-secretase (BACE)” (Janssen Pharmaceutica NV, priority 2006, dated 2011).

Legend:
Assay type in all cases: biochemical
human BACE-1 = human BACE-1 (Homo sapiens, UniProt P56817); assay: In Vitro BACE Assay run by CEREP (Example 19); details: recombinant enzyme; for inhibition at 10 µM: pH 4.5, 10.0 μM compound; for IC50: pH 4.5; for inhibition at 1 µM: pH 4.5, 1.0 μM compound
Protocol: This assay was run by CEREP (Catalog Ref. 761-B, Referred to SOP No. 1C131; ERMOLIEFF, J., LOY, J. A., KOELSCH, G. and TANG, J., Proteolytic activation of recombinant pro-memapsin 2 (pro-BACE) studied with new fluorogenic substrates, Biochemistry, (2000) Vol. 39, p. 12450).
More specifically the assay, run at 50 μL in a 96 well plate, evaluated the effect of test compound on the activity of the human BACE-1 quantified by measuring the formation of Mca-S-E-V—N-L-NH2 from Mca-S-E-V—N-L-D-A-E-F—R—K(Dnp)-R—R—NH2, using a recombinant enzyme.
The test compound, reference compound or water (control) was added to a buffer containing 0.09 M sodium acetate (pH 4.5) and 0.25 μg BACE-1. Compound interference with the fluorimetric detection method due to autofluorescence was then checked by measurements at the wavelengths defined to evaluate the enzyme activity. Thereafter, the reaction was initiated by adding 7.5 μM of the substrate Mca-S-E-V—N-L-D-A-E-F—R—K(Dnp)-R—R—NH2 and the mixture was incubated for 60 min at 37° C. For control basal measurement, the substrate was omitted from the reaction mixture. Immediately after the incubation, the fluorescence intensity emitted by the reaction product Mca-S-E-V—N-L-NH2 was measured at λex=320 nm and λem=405 nm using a microplate reader (Ultra, Tecan). The standard inhibitory reference compound was OM99-2, which was tested in each experiment at several concentrations to obtain an inhibition curve from which its IC50 value was calculated.

β-secretase (BACE) [1] = molecular target: T1, β-secretase (BACE) (Homo sapiens, UniProt P56817); assay: In Vitro BACE FS1 % Inhibition Assay (Example 15); details: FS1 substrate
T1 construct: purchased Panvera
T1 sequence (P56817 46-501): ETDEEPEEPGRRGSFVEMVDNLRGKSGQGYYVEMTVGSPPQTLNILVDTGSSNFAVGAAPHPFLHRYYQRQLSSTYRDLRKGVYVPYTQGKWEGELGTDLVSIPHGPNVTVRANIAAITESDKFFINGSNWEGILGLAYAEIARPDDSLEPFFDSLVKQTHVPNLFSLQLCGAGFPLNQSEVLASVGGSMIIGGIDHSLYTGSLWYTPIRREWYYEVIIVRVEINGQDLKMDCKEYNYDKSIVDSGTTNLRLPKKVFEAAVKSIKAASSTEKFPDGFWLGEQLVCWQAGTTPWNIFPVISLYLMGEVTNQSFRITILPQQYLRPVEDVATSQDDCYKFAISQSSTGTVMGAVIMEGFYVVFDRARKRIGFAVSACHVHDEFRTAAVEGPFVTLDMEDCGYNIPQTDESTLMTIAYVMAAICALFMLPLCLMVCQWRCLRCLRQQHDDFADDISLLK
Protocol: (§1) The following reagents were used in this assay: sodium acetate, PEG8000 (Sigma), DMSO, HEPES, FS1 substrate [R(AedensE)[…]-(DabcylK)R], β-secretase (BACE) (Panvera), and 96-well plate (HE microplate, Molecular Devices).
(§2) The following assay buffers were prepared and used in this assay: (1) enzyme assay buffer (0.05 M sodium acetate, pH5, 0.1% PEG8000 (w/v)), (2) substrate assay buffer (0.05 M sodium acetate, pH5), and (3) compound vehicle (30% DMSO in 50 mM HEPES, pH 7.4).
(§3) The FS1-substrate stock solution was prepared in DMSO as a 10 mg/mL solution. The FS1-substrate working solution was prepared by diluting the 10 mg/mL stock solution with substrate assay buffer to a final concentration of 300 μg/mL. The β-secretase (BACE) working solution was prepared by diluting a 0.83 mg/mL BACE stock solution with enzyme assay buffer to a final concentration of 4 μg/mL.
Test compounds were dissolved in DMSO to 10 mM. Compounds were further diluted in vehicle to various concentrations in the range of 405 μM to 4.05 μM (13.5× final compound concentration in screening plate).
The screening procedure for this assay was as follows: 15 μL of BACE working solution was pipetted into each well of a 96-well plate. To each well was then pipetted 2 μL of test compound at the selected concentration. Test compound and BACE were then mixed with a pipettor and incubated for 20 min at room temperature. To each well was then added 10 μL of the FS1 substrate working solution. The plates were then incubated for 1 hour at room temperature. The fluorescence for each well was then measured on an LJL analyst (Ex 360 nm/Em 530 nm).
The procedure for the blank (negative control) was as follows. 15 μL of assay buffer was pipetted into each well to be used as a blank control. To each well was then added 2 μL of vehicle and 10 μL of FS1-substrate working solution. The plates were then incubated for 1 hour at room temperature. The fluorescence was measured on an LJL analyst (Ex 360 nm/Em 530 nm).
The procedure for the positive control was as follows: 15 μL of BACE working solution was pipetted into each well to be used as a positive control. To each well was then pipetted 2 μL of vehicle. Vehicle and BACE were then mixed with a pipettor and incubated for 20 min at room temperature. To each well was then added 10 μL of the FS1 substrate working solution. The plates were then incubated for 1 hour at room temperature. The fluorescence (Fl) was then measured on an LJL analyst (Ex 360 nm/Em 530 nm).
For test compounds, % inhibition was determined at each concentration as follows:
% Inhibition values of less than 30% were indistinguishable from control and are listed as ≦30% in the Table below. % Inhibition values greater than 100% were indistinguishable from 100% within the error of the measurement.

β-secretase (BACE) [2] = molecular target: T1, β-secretase (BACE); assay: In Vitro BACE Assay, Ki (Example 16); details: FS1 substrate, pH5
Protocol: as §1, §2, §3
Test compounds were dissolved in DMSO at 10 mM.
The procedure for this assay was as follows: 15 μL of BACE working solution was pipetted into each well of a 96-well plate. To each well was then pipetted 2 μL of test compound at the selected concentration. Test compound and BACE were then mixed with a pipettor and incubated for 20 min at room temperature. […] The fluorescence for each well was then measured on a Polarstar fluorometer (Ex 390 nm/Em 520 nm) for 20 min at room temperature, reading fluorescence at 1 min intervals.
The procedure for the positive control was as follows: 15 μL of BACE working solution was pipetted into each well to be used as a positive control. […] The fluorescence was then measured on a Polarstar fluorometer (Ex 390 nm/Em 520 nm) for 20 min at room temperature, reading fluorescence at 1 min intervals.
For test compounds, Ki inhibition was determined as follows: For each compound concentration and positive control, rate of cleavage of substrate (Vi, where i=compound concentration in μM) was determined as Δ Fluorescence/Δ time (min). […] The Ki was then determined by fitting the following equation to the graph of [I] vs Vi Y=aVmax/(50+24*(1+X/Ki)),

Chain of human BACE-1 (P56817 46-501): as above

SMILES	inhibition at 10 µM (human BACE-1)	IC50 (human BACE-1)	inhibition at 1 µM (human BACE-1)	other results
COc1cc2nc(N)c(C(CCC(=O)N(C)C3CCCCC3)C3CCOCC3)cc2cc1Oc1ccccc1 (stereo not shown) [compound 101]	85%	290 nM		
CCOC(=O)C(COCc1ccccc1)NCCCC(c1cc2cc(Oc3ccccc3)ccc2nc1N)C1CCOCC1 (stereo not shown) [compound 89]	85%	690 nM		
Nc1nc2ccc(Oc3ccccc3)cc2cc1C(CCC(=O)NC1C2CC3CC(C2)CC1C3)C1CCOCC1 (stereo not shown) [compound 24]				inhibition at 0.3 µM (β-secretase (BACE) [1]; 0.3 μM compound): 56%; inhibition at 1 µM (β-secretase (BACE) [1]; 1 μM compound): 103%; inhibition at 3 µM (β-secretase (BACE) [1]; 3 μM compound): 132%; Ki (β-secretase (BACE) [2]): 66 nM
COc1cc2nc(N)c(C(CCC(=O)N(CCN3CCOCC3)C3CCCCC3)C3CCOCC3)cc2cc1Oc1ccccc1 (stereo not shown) [compound 107]	89%	360 nM		
CN(CCC[C@H](c1cc2cc(Oc3ccccc3)ccc2nc1N)C1CCOCC1)CC1CCCCC1 [compound 85]	98%	340 nM		
COc1cc2nc(N)c(C(CCCN(CCN3CCOCC3)C3CCCCC3)C3CCOCC3)cc2cc1Oc1ccccc1 (stereo not shown) [compound 108]	95%	360 nM		
COC(=O)C(COCc1ccccc1)NCCCC(c1cc2cc(Oc3ccccc3)ccc2nc1N)C1CCOCC1 (stereo not shown) [compound 95]	95%	120 nM		
Nc1nc2ccc(Oc3ccccc3)cc2cc1CCC(=O)NC1C2CC3CC(C2)CC1C3 (stereo not shown) [compound 2]				inhibition at 0.3 µM (β-secretase (BACE) [1]; 0.3 μM compound): 45%; inhibition at 1 µM (β-secretase (BACE) [1]; 1 μM compound): 78%; inhibition at 3 µM (β-secretase (BACE) [1]; 3 μM compound): 107%; Ki (β-secretase (BACE) [2]): 230 nM
Cn1ccnc1CN(CCCC(c1cc2cc(Oc3ccccc3)ccc2nc1N)C1CCOCC1)C1CCCCC1 (stereo not shown) [compound 94]	95%	82 nM		
Nc1nc2ccc(Oc3ccccc3)cc2cc1C(CCCC(=O)N(CCN1CCOCC1)C1CCCCC1)C1CCOCC1 (stereo not shown) [compound 90]	94%	1700 nM		
Cn1ccnc1CN(CCCC(c1cc2cc(Oc3ccccc3)ccc2nc1N)C1CCOCC1)CCC(C)(C)C (stereo not shown) [Example 11, 3-[4-[(3,3-dimethyl-butyl)-(1-methyl-1H-imidazol-2-ylmethyl)-amino]-1-(tetrahydro-pyran-4-yl)-butyl]-6-phenoxy-quinolin-2-ylamine]				% Inhibition @ 0.3 μM (β-secretase (BACE) [1]; 0.3 μM compound): −6%; % Inhibition @ 1 μM (β-secretase (BACE) [1]; 1 μM compound): 5%; % Inhibition @ 3 μM (β-secretase (BACE) [1]; 3 μM compound): 81%
Nc1nc2ccc(Oc3ccccc3)cc2cc1C(CCCC(=O)N(CCN1CCCC1)C1CCCCC1)C1CCOCC1 (stereo not shown) [compound 91]	86%	1100 nM		
Nc1nc2ccc(Oc3ccccc3)cc2cc1C(Cc1cn(C23CC4CC(CC(C4)C2)C3)nn1)C1CCOCC1 (stereo not shown) [compound 153]		670 nM	46%	
CN(C(=O)CCCC(c1cc2cc(Oc3ccccc3)ccc2nc1N)C1CCCCC1)C1CCCCC1 (stereo not shown) [compound 40]		650 nM	54%	inhibition at 0.3 µM (human BACE-1; pH 4.5, 0.3 μM compound): 13%
Nc1nc2ccc(Oc3ccccc3)cc2cc1C(CCC(=O)NC1C2CC3CC(C2)CC1C3)C1CCCCC1 (stereo not shown) [compound 15]				inhibition at 0.3 µM (β-secretase (BACE) [1]; 0.3 μM compound): 43%; inhibition at 1 µM (β-secretase (BACE) [1]; 1 μM compound): 58%; inhibition at 3 µM (β-secretase (BACE) [1]; 3 μM compound): 78%; Ki (β-secretase (BACE) [2]): 280 nM
Nc1nc2ccc(Oc3ccccc3)cc2cc1C(CCc1cn(C23CC4CC(CC(C4)C2)C3)nn1)C1CCOCC1 (stereo not shown) [compound 155]		2200 nM	67%	

The next lines start with results.

inhibition at 10 µM (human BACE-1)	IC50 (human BACE-1)	inhibition at 1 µM (human BACE-1)	SMILES	other results
97%	270 nM		CCOc1cc2nc(N)c(C(CCC(=O)NCCC(C)(C)C)C3CCOCC3)cc2cc1Oc1ccccc1 (stereo not shown) [compound 102]	
	210 nM	85%	CC(C)(C)CCNC(=O)CCC[C@H](c1cc2cc(Oc3ccccc3)ccc2nc1N)C1CCOCC1 [compound 82]	
	740 nM	87%	Nc1nc2ccc(Oc3ccccc3)cc2cc1C(CCC(=O)N(CCO)C1CCCCC1)C1CCOCC1 (stereo not shown) [compound 50]	
	560 nM	53%	CC(C)(C)c1cc(CC(c2cc3cc(Oc4ccccc4)ccc3nc2N)C2CCOCC2)on1 (stereo not shown) [compound 152]	
	340 nM	75%	Nc1nc2ccc(Oc3ccccc3)cc2cc1[C@@H](CCC(=O)NCC1CC1)C1CCOCC1 [compound 78]	
95%	86 nM		CC(C)(C)CCN(CCCC(c1cc2cc(Oc3ccccc3)ccc2nc1N)C1CCOCC1)CCN1CCCC1 (stereo not shown) [compound 93]	
	360 nM	96%	CN(CC1CCCCC1)C(=O)CC[C@H](c1cc2cc(Oc3ccccc3)ccc2nc1N)C1CCOCC1 [compound 84]	
	310 nM	90%	CC(C)(C)Cc1cc(CC(c2cc3cc(Oc4ccccc4)ccc3nc2N)C2CCOCC2)on1 (stereo not shown) [compound 151]	
	3300 nM	12%	CC(C)(C)n1cc(CC(c2cc3cc(Oc4ccccc4)ccc3nc2N)C2CCOCC2)nn1 (stereo not shown) [compound 150]	
99%	260 nM		Cn1ccnc1CN(CCC(C)(C)C)C(=O)CCCC(c1cc2cc(Oc3ccccc3)ccc2nc1N)C1CCOCC1 (stereo not shown) [compound 87]	
	290 nM	89%	CC(C)(C)CCNC(=O)CC[C@H](c1cc2cc(Oc3ccccc3)ccc2nc1N)C1CCOCC1 [compound 79]	
	220 nM	100%	Cn1ccnc1CN(CCC(C)(C)C)C(=O)CC[C@H](c1cc2cc(Oc3ccccc3)ccc2nc1N)C1CCOCC1 [compound 86]	
83%	1700 nM		CC(C)C(CO)NCCCC(c1cc2cc(Oc3ccccc3)ccc2nc1N)C1CCOCC1 (stereo not shown) [compound 96]	
	310 nM	85%	CC(C)(C)c1cc(CCC(c2cc3cc(Oc4ccccc4)ccc3nc2N)C2CCOCC2)on1 (stereo not shown) [compound 156]	
72%	370 nM		COc1cc2nc(N)c(C(CCC(=O)NCCC(C)(C)C)C3CCOCC3)cc2cc1Oc1ccccc1 (stereo not shown) [compound 100]	
